One molecule from patent US20170144985A1, “DIAMINOTRIAZINE COMPOUND USEFUL AS HERBICIDE” (BASF SE, priority 2014, published 2017) can be followed below.

Assay in all cases: greenhouse pre-emergence herbicidal test
One assay deals with ALOMY. Format: in vivo, Alopecurus myosuroides. The conditions noted are these: application rate 0.5 kg/ha, scale from 0 to 100, ALOMY. From the text: (§1) The seeds of the test plants were sown separately for each species. For the pre-emergence treatment, the active ingredients, which had been suspended or emulsified in water, were applied directly after sowing by means of finely distributing nozzles. The containers were irrigated gently to promote germination and growth and subsequently covered with transparent plastic hoods until the plants had rooted. This cover caused uniform germination of the test plants, unless this had been impaired by the active ingredients. Depending on the species, the plants were kept at 10-25° C. or 20-35° C., respectively. The test period extended over 2 to 4 weeks. During this time, the plants were tended, and their response to the individual treatments was evaluated. Evaluation was carried out using a scale from 0 to 100. 100 means no emergence of the plants, or complete destruction of at least the aerial moieties, and 0 means no damage, or normal course of growth. A moderate herbicidal activity is given at values of at least 60, a good herbicidal activity is given at values of at least 70, and a very good herbicidal activity is given at values of at least 85. The plants used in the greenhouse experiments were of the following species: [table]

A further assay has as its system AMARE. The format is in vivo, Amaranthus retroflexus. The conditions noted are these: application rate 0.5 kg/ha, scale from 0 to 100, AMARE.
Text: as §1

The test system of another assay is APESV. Format: in vivo, Apera spica-venti. The conditions noted are these: application rate 0.5 kg/ha, scale from 0 to 100, APESV.
Text: as §1

As for `Nc1nc(Nc2c(F)c(F)nc(F)c2F)nc(N2CCCC2)n1` [Example 1, 6-pyrrolidin-1-yl-N4-(2,3,5,6-tetrafluoro-4-pyridyl)-1,3,5-triazine-2,4-diamine], the herbicidal activity entry in the assay with ALOMY, with AMARE and in the assay on APESV was “very good (a very good herbicidal activity is given at values of at least 85)” throughout.
